Laboratory results reported in patent US10897901B2, “Herbicidal composition” (FMC Corporation, priority 2007, dated 2021).

Assays:
Format in all cases: in vivo
Kochia (Kochia scoparia) = experiment: Example 4 post-emergence greenhouse pot test, kochia
Procedure: (§1) Test compositions containing sulfentrazone (75 DF formulation), quniclorac, (DRIVE® 75 DF Herbicide) or mixtures of sulfentrazone and quinclorac at ratios of 1:1 to 1:5, were diluted with water to provide the appropriate test rate concentrations. A nonionic surfactant (0.25%) was added to each test solution. The test weeds include crabgrass (Digitaria sp), Chickweed (Stellaria media), Hemp Sesbania (Sesbania exaltata), Kochia (Kochia scoparia), Ivyleaf Morningglory (Ipomoea hederacea), Redroot Pigweed (Amaranthus retroflexus) and yellow nutsedge (Cyperus esculentusi).
(§2) For post-emergence testing, three disposable 3 inch square pots for each rate of application of each herbicide were filled with a soil, comprised of peat moss, vermiculite, bark ash, pine bark, limestone and a wetting agent, to which 8 to 10 seeds were planted. The pots were placed in a greenhouse and watered daily, thus allowing the seeds to germinate and the foliage to develop for 22 days, 3 months for Kochia.
(§3) Pots designated for treatment were placed on a conveyor belt and the conveyor belt fed under a spray nozzle mounted about ten inches above the foliage. The spray of herbicidal solution was commenced and once stabilized; the pots were passed under the spray at a speed to receive a coverage equivalent of 30 gallons per acre. The application rates are those shown in Table 4 below for the individual herbicidal solutions and the mixture of sulfentrazone and quinclorac. The post-emergence pots were immediately placed in the green-house and not watered until 24 hours after treatment with the test solution. Thereafter they were regularly watered at ground level. The control of weeds was evaluated in each experimental test from 2 to 20 days after treatment (DAT). The results, shown as an average of the replications, were compared with results observed in untreated control pots in the same tests.
(§4) Percent control was determined by a method similar to the 0 to 100 rating system disclosed in “Research Methods in Weed Science,” 2nd ed., B. Truelove, Ed.; Southern Weed Science Society; Auburn University, Auburn, Ala., 1977.

[1] = system: Ivyleaf Morningglory (Ipomoea hederacea); experiment: Example 4 post-emergence greenhouse pot test, morningglory
Procedure: as §1, §2, §3, §4

[2] = system: Redroot Pigweed (Amaranthus retroflexus); experiment: Example 4 post-emergence greenhouse pot test, pigweed
Procedure: as §1, §2, §3, §4

With `O=C(O)c1c(Cl)ccc2cc(Cl)cnc12` [B, 3,7-dichloro-8-quinolinecarboxylic acid] the Percent Control (Kochia (Kochia scoparia); 0.75 lb ai/acre, 2 DAT) was 0%, the Percent Control (Kochia (Kochia scoparia); 0.75 lb ai/acre, 7 DAT) was 0% and the Percent Control (Kochia (Kochia scoparia); 0.75 lb ai/acre, 14 DAT) was 10%. For the same molecule, the Percent Control (Kochia (Kochia scoparia); 0.75 lb ai/acre, 20 DAT) was 5%, the Percent Control (Kochia (Kochia scoparia); 1.0 lb ai/acre, 2 DAT) was 0% and the Percent Control (Kochia (Kochia scoparia); 1.0 lb ai/acre, 7 DAT) was 0%. The Percent Control (Kochia (Kochia scoparia); 1.0 lb ai/acre, 14 DAT) was 10%, the Percent Control (Kochia (Kochia scoparia); 1.0 lb ai/acre, 20 DAT) was 20% and the Percent Control (Kochia (Kochia scoparia); 1.25 lb ai/acre, 2 DAT) was 0%. It also gave a Percent Control (Kochia (Kochia scoparia); 1.25 lb ai/acre, 7 DAT) of 0%, a Percent Control (Kochia (Kochia scoparia); 1.25 lb ai/acre, 14 DAT) of 10% and a Percent Control (Kochia (Kochia scoparia); 1.25 lb ai/acre, 20 DAT) of 10%. It also gave a Percent Control ([1]; 0.25 lb ai/acre, 2 DAT) of 20%, a Percent Control ([1]; 0.25 lb ai/acre, 7 DAT) of 25% and a Percent Control ([1]; 0.25 lb ai/acre, 14 DAT) of 60%. It also gave a Percent Control ([1]; 0.25 lb ai/acre, 20 DAT) of 70%, a Percent Control ([1]; 0.5 lb ai/acre, 2 DAT) of 20% and a Percent Control ([1]; 0.5 lb ai/acre, 7 DAT) of 25%. For the same molecule, the Percent Control ([1]; 0.5 lb ai/acre, 14 DAT) was 40%, the Percent Control ([1]; 0.5 lb ai/acre, 20 DAT) was 50% and the Percent Control ([1]; 0.75 lb ai/acre, 2 DAT) was 20%. For the same molecule, the Percent Control ([1]; 0.75 lb ai/acre, 7 DAT) was 25%, the Percent Control ([1]; 0.75 lb ai/acre, 14 DAT) was 40% and the Percent Control ([1]; 0.75 lb ai/acre, 20 DAT) was 50%. The Percent Control ([1]; 1.0 lb ai/acre, 2 DAT) was 20%, the Percent Control ([1]; 1.0 lb ai/acre, 7 DAT) was 25% and the Percent Control ([1]; 1.0 lb ai/acre, 14 DAT) was 50%. The Percent Control ([1]; 1.0 lb ai/acre, 20 DAT) was 70%, the Percent Control ([1]; 1.25 lb ai/acre, 2 DAT) was 20% and the Percent Control ([1]; 1.25 lb ai/acre, 7 DAT) was 25%. It also gave a Percent Control ([1]; 1.25 lb ai/acre, 14 DAT) of 40%, a Percent Control ([1]; 1.25 lb ai/acre, 20 DAT) of 50% and a Percent Control ([2]; 0.25 lb ai/acre, 2 DAT) of 10%. For the same molecule, the Percent Control ([2]; 0.25 lb ai/acre, 7 DAT) was 10%, the Percent Control ([2]; 0.25 lb ai/acre, 14 DAT) was 10% and the Percent Control ([2]; 0.25 lb ai/acre, 20 DAT) was 10%. It also gave a Percent Control ([2]; 0.5 lb ai/acre, 2 DAT) of 0%, a Percent Control ([2]; 0.5 lb ai/acre, 7 DAT) of 0% and a Percent Control ([2]; 0.5 lb ai/acre, 14 DAT) of 0%. It also gave a Percent Control ([2]; 0.5 lb ai/acre, 20 DAT) of 0%, a Percent Control ([2]; 0.75 lb ai/acre, 2 DAT) of 0% and a Percent Control ([2]; 0.75 lb ai/acre, 7 DAT) of 0%. It also gave a Percent Control ([2]; 0.75 lb ai/acre, 14 DAT) of 0%, a Percent Control ([2]; 0.75 lb ai/acre, 20 DAT) of 0% and a Percent Control ([2]; 1.0 lb ai/acre, 2 DAT) of 0%. For the same molecule, the Percent Control ([2]; 1.0 lb ai/acre, 7 DAT) was 0%, the Percent Control ([2]; 1.0 lb ai/acre, 14 DAT) was 0% and the Percent Control ([2]; 1.0 lb ai/acre, 20 DAT) was 0%. The Percent Control ([2]; 1.25 lb ai/acre, 2 DAT) was 10%, the Percent Control ([2]; 1.25 lb ai/acre, 7 DAT) was 10% and the Percent Control ([2]; 1.25 lb ai/acre, 14 DAT) was 10%. It also gave a Percent Control ([2]; 1.25 lb ai/acre, 20 DAT) of 10%.
